From patent US11787825B2 (priority 2021, dated 2023)
Converted amounts (≈) assume the structure as drawn. Where two headings read alike, the source gives them in different places.

How the values were obtained:
physchem = conditions: 25 °C, thermodynamic from solid
[1] = 0.1N HCL, 1.0% DMSO, 24-hour incubation at ambient temperature, maximum theoretical compound concentration 100 μM
[2] = 1×PBS buffer (pH 7.4), 1.0% DMSO, 24-hour incubation at ambient temperature, maximum theoretical compound concentration 100 μM

Row | solubility (physchem; fasted state simulated intestinal fluid (FaSSIF), fassif) [mg/mL] | solubility (physchem; fed state simulated intestinal fluid (FeSSIF), fessif) [mg/mL] | Compound | pH 2 solubility (pH 2) | pH 7 solubility (pH 7.4) | solubility (physchem; fassif) [mg/mL] | solubility (physchem; fessif) [mg/mL] | pH 2 solubility [1] [μM] | pH 7 solubility [2] [μM]
1 | – | – | CC(C)(C#Cc1ccc(-c2ccc(Cl)c3c(N(C(=O)Cc4ccc(OP(=O)(O)O)cc4)S(C)(=O)=O)nn(CC(F)(F)F)c23)c([C@H](Cc2cc(F)cc(F)c2)NC(=O)Cn2nc(C(F)(F)F)c3c2C(F)(F)[C@@H]2C[C@H]32)n1)S(C)(=O)=O [Compound 51, 4-(2-(N-(4-chloro-7-(2-((S)-1-(2-((3bS,4aR)-5,5-difluoro (trifluoromethyl)-3b,4,4a,5-tetrahydro-1H-cyclopropa[3,4]cyclopenta[1,2-c]pyrazolyl)acetamido)-2-(3,5-difluorophenyl)ethyl)-6-(3-methyl-3-(methylsulfonyl)but-1-ynyl)pyridin-3-yl)-1-(2,2,2-trifluoroethyl)-1H-indazol-3-yl)methylsulfonamido)oxoethyl)phenyl dihydrogen phosphate] | 1/100 μM | 1/100 μM | 1.75 | 1.45 | – | –
2 | > 2.84 | 0.454 (≈ 359 µM) | CC(C)(C#Cc1ccc(-c2ccc(Cl)c3c(N(C(=O)CCC(CC(=O)O)NC(=O)OCOP(=O)(O)O)S(C)(=O)=O)nn(CC(F)(F)F)c23)c([C@H](Cc2cc(F)cc(F)c2)NC(=O)Cn2nc(C(F)(F)F)c3c2C(F)(F)[C@@H]2C[C@H]32)n1)S(C)(=O)=O (stereo in doubt) [Compound 34, (R)-6-(N-(4-chloro-7-(2-((S)-1-(2-((3bS,4aR)-5,5-difluoro-3-(trifluoromethyl)-3b,4,4a,5-tetrahydro-1H-cyclopropa[3,4]cyclopenta[1,2-c]pyrazol-1-yl)acetamido)-2-(3,5-difluorophenyl)ethyl)-6-(3-methyl-3-(methylsulfonyl)but-1-yn-1-yl)pyridin-3-yl)-1-(2,2,2-trifluoroethyl)-1H-indazol-3-yl)methylsulfonamido)-6-oxo-3-((((phosphonooxy)methoxy)carbonyl)amino)hexanoic acid] | – | – | – | – | 3 | 75
3 | – | – | Cc1cc(C(=O)NCP(=O)(O)O)cc(OP(=O)(O)O)c1C(C)(C)CC(=O)N(c1nn(CC(F)(F)F)c2c(-c3ccc(C#CC(C)(C)S(C)(=O)=O)nc3[C@H](Cc3cc(F)cc(F)c3)NC(=O)Cn3nc(C(F)(F)F)c4c3C(F)(F)[C@@H]3C[C@H]43)ccc(Cl)c12)S(C)(=O)=O [Compound 60, ((4-(4-(N-(4-chloro-7-(2-((S)-1-(2-((3bS,4aR)-5,5-difluoro-3-(trifluoromethyl)-3b,4,4a,5-tetrahydro-1H-cyclopropa[3,4]cyclopenta[1,2-c]pyrazol-1-yl)acetamido)-2-(3,5-difluorophenyl)ethyl)-6-(3-methyl-3-(methylsulfonyl)but-1-yn-1-yl)pyridin-3-yl)-1-(2,2,2-trifluoroethyl)-1H-indazol-3-yl)methylsulfonamido)-2-methyl-4-oxobutan-2-yl)-3-methyl-5-(phosphonooxy)benzamido)methyl)phosphonic acid] | 1/64 μM | 1/64 μM | > 10 | – | – | –
4 | – | – | CN(CC(=O)N(c1nn(CC(F)(F)F)c2c(-c3ccc(C#CC(C)(C)S(C)(=O)=O)nc3[C@H](Cc3cc(F)cc(F)c3)NC(=O)Cn3nc(C(F)(F)F)c4c3C(F)(F)[C@@H]3C[C@H]43)ccc(Cl)c12)S(C)(=O)=O)C(=O)OCOP(=O)(O)O [Compound 37, (phosphonooxy)methyl (2-(N-(4-chloro-7-(2-((S)-1-(2-((3bS,4aR)-5,5-difluoro-3-(trifluoromethyl)-3b,4,4a,5-tetrahydro-111-cyclopropa[3,4]cyclopenta[1,2-c]pyrazol-1-yl)acetamido)-2-(3,5-difluorophenyl)ethyl)-6-(3-methyl-3-(methylsulfonyl)but-1-yn-1-yl)pyridin-3-yl)-1-(2,2,2-trifluoroethyl)-1H-indazol-3-yl)methylsulfonamido)-2-oxoethyl)(methyl)carbamate] | – | – | 0.674 (≈ 565 µM) | – | 1 | 79
